# Results reported in PMC8219695 (Nature Communications, 2021).
# “And” between values parts separate entries of the source, which are not always exact repeats. Identical values can stand only once.
# Legend:
# mDOR [1] = target: T1, mDOR (Mus musculus, UniProt P32300); assay: CAMYEL BRET cAMP agonist assay at mDOR; type: cell-based; settings: for Agonist activity of 7OH analogs at mDOR: single replicate values, Supplementary Figure 7B, listed as 7-OH-Mitragynine
# T1 construct: expressed in transfected cells
# hMOR = target: T2, hMOR (Homo sapiens, UniProt P35372); assay: CAMYEL BRET cAMP agonist assay at hMOR; type: cell-based; settings: for cAMP %: hMOR, single replicates, source data Fig 6c
# T2 construct: expressed in transfected cells; plasmid a gift from Dr. Nevin Lambert
# rKOR = target: T3, rKOR (Rattus norvegicus, UniProt P34975); assay: CAMYEL BRET cAMP agonist assay at rKOR; type: cell-based; settings: individual replicates, Supplementary Figure 8B source data
# T3 construct: expressed in transfected cells
# hDOR = hDOR (Homo sapiens, UniProt P41143); assay: CAMYEL BRET cAMP agonist assay at hDOR; type: cell-based; settings: for Agonist activity of 7OH analogs at hDOR: single replicate values, Supplementary Figure 7A, listed as 7-OH-Mitragynine
# mMOR [2] = target: T4, mMOR (Mus musculus, UniProt P42866); assay: CAMYEL BRET cAMP agonist assay at mMOR; type: cell-based; settings: for cAMP %: single replicates, source data Fig 6b
# T4 construct: signal peptide (heterologous, not specified) (N); expressed in transfected cells; pcDNA3.1(+) construct made in house
# mDOR [3] = target: T1, mDOR; assay: [125I]BNtxA radioligand competition binding, mouse DOR
# CD1 mice = assay: Tail-flick antinociception in CD1 mice; type: in vivo, mouse; settings: Fig 9b; 7OH 2 mg/kg, sc; individual animals
# mKOR = target: T5, mKOR (Mus musculus, UniProt P33534); assay: [125I]BNtxA radioligand competition binding, mouse KOR
# T5 construct: expressed in transfected cells; membranes
# mMOR [4] = target: T4, mMOR; assay: [125I]BNtxA radioligand competition binding, mouse MOR
# hKOR = hKOR (Homo sapiens, UniProt P41145); assay: CAMYEL BRET cAMP agonist assay at hKOR; type: cell-based; settings: individual replicates, Supplementary Figure 8A source data
compound,measurement,setting,value
"CC[C@@H]1CN2CC[C@@]3(O)C(=Nc4cccc(OC)c43)[C@@H]2C[C@@H]1/C(=C\OC)C(=O)OC [7OH, 7-Hydroxymitragynine, reference compound]",EC50,mDOR [1],71.4 nM
same,Agonist activity of 7OH analogs at mDOR,mDOR [1]; Log[drug] (M) -5,79.5205 and 79.1947 and 68.9488 and 85.2247 and 78.2035 and 78.3957 and 62.0758 and 81.7668 and 72.4775
same,Agonist activity of 7OH analogs at mDOR,mDOR [1]; Log[drug] (M) -6,49.9165 and 58.342 and 65.4236 and 68.6722 and 65.6062 and 68.2461 and 72.0352 and 62.2673 and 61.4936
same,Agonist activity of 7OH analogs at mDOR,mDOR [1]; Log[drug] (M) -7,29.0999 and 46.5592 and 41.3409 and 38.1857 and 36.2209 and 62.8298 and 64.7985 and 75.1004
same,Agonist activity of 7OH analogs at mDOR,mDOR [1]; Log[drug] (M) -8,17.0946 and 20.9939 and 16.1181 and 8.745 and 16.0659 and 5.863 and 49.6952 and 40.7941 and 63.5779
same,Agonist activity of 7OH analogs at mDOR,mDOR [1]; Log[drug] (M) -9,27.3274 and 1.192 and 34.2965 and 12.9525 and -4.552 and -8.401 and 25.2583 and 24.354 and 24.6431
same,Agonist activity of 7OH analogs at mDOR,mDOR [1]; Log[drug] (M) -10,39.904 and 39.7156 and 42.1881 and 15.8228 and 9.006 and 14.7091 and 41.1226 and 23.2827 and 29.2586
same,Agonist activity of 7OH analogs at mDOR,mDOR [1]; Log[drug] (M) -11,3.455 and 6.714 and 6.951 and -3.421 and 2.4315 and 1.875 and 9.138 and 13.5385
same,Agonist activity of 7OH analogs at mDOR,mDOR [1]; Log[drug] (M) -13,3.619 and 5.368 and -8.987 and -7.007 and 2.297 and 7.3103 and -1.541 and -0.9135 and 2.455
same,Emax,mDOR [1]; read-out: Emax,72%
same,Emax,hMOR,96%
same,cAMP %,hMOR; Log[drug] (M) -5,88.4213% and 90.605% and 95.9962% and 96.6598% and 92.1499% and 89.6322% and 104.97% and 106.65% and 107.127%
same,cAMP %,hMOR; Log[drug] (M) -6,85.9913% and 88.2699% and 100.077% and 95.6224% and 98.6028% and 95.7246% and 101.519% and 93.2699% and 100.898%
same,cAMP %,hMOR; Log[drug] (M) -7,74.1823% and 79.6011% and 86.6364% and 71.3053% and 75.9463% and 78.9671% and 86.5888% and 87.8073% and 87.9307%
same,cAMP %,hMOR; Log[drug] (M) -8,47.9539% and 40.673% and 45.9228% and 28.5173% and 37.309% and 37.8989% and 36.8098% and 40.2437% and 43.4509%
same,cAMP %,hMOR; Log[drug] (M) -9,-5.159% and -0.2818% and 15.9197% and 2.836% and 1.425% and -4.261% and 10.2218% and -0.8382% and 19.3398%
same,cAMP %,hMOR; Log[drug] (M) -10,2.406% and -6.901% and 4.4945% and -1.371% and 5.724% and -0.06095% and -1.689% and 0.384% and 1.305%
same,cAMP %,hMOR; Log[drug] (M) -11,10.0741% and 2.867% and -1.276% and 14.2755% and -12.2251% and 5.789% and 12.061% and -4.689% and 0.8824%
same,cAMP %,"hMOR; Log[drug] (M) -13, cAMP inhibition as % of DAMGO",3.998% and -9.01% and 9.508% and 14.9262% and 7.334% and 14.594% and 2.431% and 9.511% and 1.874%
same,Agonist activity of 7OH analogs at rKOR,rKOR; Log [drug](M) -5,51.4853 and 69.9742 and 40.1102 and 17.9877 and 23.0672 and 30.6086 and 23.1026 and 36.1112 and 26.5447
same,Agonist activity of 7OH analogs at rKOR,rKOR; Log [drug](M) -6,50.3386 and 47.4584 and 37.1736 and 16.4913 and 27.1082 and 15.3746 and 22.6508 and 23.988 and 23.2951
same,Agonist activity of 7OH analogs at rKOR,rKOR; Log [drug](M) -7,32.3706 and 5.504 and 6.859 and 19.3779 and 10.5115 and 15.4551 and 8.6 and 9.151 and 16.9313
same,Agonist activity of 7OH analogs at rKOR,rKOR; Log [drug](M) -8,4.174 and 5.52 and 21.8967 and -3.058 and 2.36 and 0.6978 and 14.0563 and 6.31 and 24.1641
same,Agonist activity of 7OH analogs at rKOR,rKOR; Log [drug](M) -9,4.922 and -12.3356 and 11.254 and 8.301 and 17.6392 and 14.4513 and 3.607 and 6.21 and -1.551
same,Agonist activity of 7OH analogs at rKOR,rKOR; Log [drug](M) -10,-1.1625 and -7.143 and 8.305 and 14.5638 and 5.983 and 1.382 and -0.5163 and -2.6368 and 4.024
same,Agonist activity of 7OH analogs at rKOR,rKOR; Log [drug](M) -11,3.848 and 0.4662 and 0.6482 and 7.796 and 8.5204 and -1.878 and 0.3369 and -2.372 and 2.035
same,Agonist activity of 7OH analogs at rKOR,rKOR; Log [drug](M) -13,5.7561 and 2.46 and -0.5992 and 11.3924 and -1.857 and 11.6902 and 1.603 and -2.596 and 3.807
same,EC50,hDOR,99.9 nM
same,Agonist activity of 7OH analogs at hDOR,hDOR; Log[drug] (M) -5,59.4902 and 54.7394 and 48.113 and 45.4731 and 42.3531 and 41.8085 and 33.7355 and 48.8189 and 36.1755
same,Agonist activity of 7OH analogs at hDOR,hDOR; Log[drug] (M) -6,47.0072 and 54.0661 and 57.5431 and 39.2612 and 45.3193 and 38.3255 and 32.249 and 29.9213 and 37.5943
same,Agonist activity of 7OH analogs at hDOR,hDOR; Log[drug] (M) -7,27.5943 and 29.9093 and 13.7827 and 13.3703 and 19.5028 and 21.8057 and 32.1543 and 37.3674 and 42.4632
same,Agonist activity of 7OH analogs at hDOR,hDOR; Log[drug] (M) -8,27.0326 and 26.8622 and 6.318 and -2.952 and 5.202 and 3.255 and 18.5072 and 16.8026 and 16.758
same,Agonist activity of 7OH analogs at hDOR,hDOR; Log[drug] (M) -9,15.8661 and 3.122 and 22.479 and 1.833 and -4.308 and 2.475 and 15.4988 and 8.368 and 7.075
same,Agonist activity of 7OH analogs at hDOR,hDOR; Log[drug] (M) -10,31.7942 and 19.5741 and 16.1123 and 10.5331 and 9.484 and 5.51 and 21.6698
same,Agonist activity of 7OH analogs at hDOR,hDOR; Log[drug] (M) -11,10.918 and -1.6818 and 2.572 and 2.605 and 5.418 and 12.5121 and 11.3973 and 0.7522 and -0.994
same,Agonist activity of 7OH analogs at hDOR,hDOR; Log[drug] (M) -13,3.025 and -6.776 and 3.7513 and 10.1702 and 6.174 and 15.4423 and -4.715 and 5.3718 and -0.6565
same,Emax,hDOR; read-out: Emax,45%
same,EC50,mMOR [2],48 nM
same,cAMP %,"mMOR [2]; Log[drug] (M) -5, mMOR",54.7418% and 39.306% and 62.8715% and 90.7674% and 85.3805% and 81.3701% and 80.1578% and 78.2326% and 79.4832%
same,cAMP %,"mMOR [2]; Log[drug] (M) -6, mMOR",51.4904% and 44.0439% and 41.1377% and 71.7778% and 87.0279% and 84.9352% and 65.6946% and 62.0616% and 68.2077%
same,cAMP %,"mMOR [2]; Log[drug] (M) -7, mMOR",31.3362% and 29.5321% and 20.0587% and 64.2387% and 61.8389% and 74.7851% and 53.7172% and 48.585% and 45.7301%
same,cAMP %,"mMOR [2]; Log[drug] (M) -8, mMOR",9.25% and 16.4555% and 10.0292% and 22.5933% and 31.4368% and 25.3107% and 17.3146% and 8.444% and 13.6716%
same,cAMP %,"mMOR [2]; Log[drug] (M) -9, mMOR",6.25% and 5.067% and 3.569% and -0.5857% and 7.672% and -7.0867% and 8.23% and -1.022% and 10.8029%
same,cAMP %,"mMOR [2]; Log[drug] (M) -10, mMOR",12.6265% and -11.9755% and 9.001% and 8.7384% and -5.2017% and 8.648% and -2.705% and -3.188% and 5.894%
same,cAMP %,"mMOR [2]; Log[drug] (M) -11, mMOR",-0.9102% and -0.5945% and 1.505% and 10.3177% and 11.6% and 5.328% and 6.124% and -1.189% and -0.6754%
same,cAMP %,"mMOR [2]; Log[drug] (M) -13, mMOR, cAMP inhibition as % of DAMGO",3.306% and 2.892% and -4.359% and 9.797% and 10.0834% and 11.919% and 5.129% and 4.129% and 1.2769%
same,Emax,"mMOR [2]; mMOR, maximal inhibitory effect on cAMP levels relative to DAMGO",70%
same,Ki,mDOR [3],88.5 ± 9.9 nM
same,Tail flick (%MPE),CD1 mice,100.00 %MPE (8×) and 57.97 %MPE and 52.05 %MPE
same,Tail flick latency,CD1 mice,10 (8×) and 7.1 and 6.5
same,Ki,mKOR,119 ± 2.1 nM
same,Ki,mMOR [4],21.5 ± 0.8 nM
same,Agonist activity of 7OH analogs at hKOR,hKOR; Log [drug](M) -5,25.1107 and 37.2516 and 25.09 and 18.6326 and 7.697 and 7.056 and 12.3573 and 15.4119 and 15.9917
same,Agonist activity of 7OH analogs at hKOR,hKOR; Log [drug](M) -6,26.3842 and 27.9158 and 17.2556 and 19.1124 and 15.0208 and 6.652 and 13.1771 and 3.299 and 8.814
same,Agonist activity of 7OH analogs at hKOR,hKOR; Log [drug](M) -7,10.6234 and 4.588 and 26.8644 and 8.68 and -0.2355 and 14.6509 and 3.557 and -6.963 and -8.284
same,Agonist activity of 7OH analogs at hKOR,hKOR; Log [drug](M) -8,5.978 and -10.4494 and 7.122 and 8.973 and 3.679 and 0.5669 and 3.537 and -8.354 and -5.217
same,Agonist activity of 7OH analogs at hKOR,hKOR; Log [drug](M) -9,4.358 and -4.206 and -18.6896 and -3.311 and 1.614 and -2.537 and 1.131 and 5.305 and 46.2002
same,Agonist activity of 7OH analogs at hKOR,hKOR; Log [drug](M) -10,-9.33 and 0.6018 and -2.152 and 0.113 and -1.397 and 4.8046 and -5.84 and -6.29 and 4.4418
same,Agonist activity of 7OH analogs at hKOR,hKOR; Log [drug](M) -11,2.533 and -16.0954 and -7.281 and -0.5606 and -1.386 and 5.188 and 3.6558 and -6.195 and -4.675
same,Agonist activity of 7OH analogs at hKOR,hKOR; Log [drug](M) -13,-2.907 and -1.906 and 4.813 and 2.257 and -10 and 7.743 and -0.9804 and -0.456 and 1.436
